# Source: ChEMBL document CHEMBL3507680, “University of Dundee, Gates Library screen for HepG2 cell viability”
# Assay: Human HepG2 cell viability assay in 384 well format
# Assay type: toxicity, cell-based
# Set-up: dose 125 nL, time 70.5 hour; cytotoxicity at 70.5 h: concentration not given beside the values
# Conditions: HepG2 cells, read-out: Inhibition
row,Compound,cytotoxicity at 70.5 h
1,CCCS(=O)(=O)NC(C)C(=O)NCc1ccnc(N2CCCC2)c1 (stereo not drawn),-3.25%
2,COc1ccccc1NC(=O)NCCCn1nc2ccccn2c1=O,-3.26%
3,CC1CCCCN1CCNC(=O)c1ccn(-c2ccccc2)n1 (stereo not drawn),13.6%
4,O=C(NCCN1CCCCC1)c1ccn(-c2ccc(F)cc2)n1,0.39%
5,O=C(CCNc1ncccn1)N1CCCN(c2nccs2)CC1,15.2%
6,CNS(=O)(=O)c1cccc(CNc2ncccn2)c1,-1.46%
7,CN(Cc1nnc2n1CCC2)C(=O)Cc1ccc2c(c1)CCC2,-6.67%
8,Cc1csc(N2CCN(C(=O)CCCNc3ncccn3)CC2)n1,-5.37%
9,O=C(NCCNc1ncccn1)C1CC(=O)N(Cc2ccccn2)C1 (stereo not drawn),17.5%
10,CC(C)COCC(NC(=O)c1ccncc1)c1ccco1 (stereo not drawn),-4.28%
11,Cc1cnc(C(=O)NC(COCC(C)C)c2ccco2)cn1 (stereo not drawn),-0.693%
12,CCN1CCN(CCNC(=O)c2ccn(-c3ccc(F)cc3)n2)CC1,-3.79%
13,CC(=O)N1CCN(C(=O)CN2CCCC2Cn2nc(C)cc2C)CC1 (stereo not drawn),11.5%
14,Cn1nc2c(cc1=O)CN(CCN1CCCC1=O)CC2,-1.09%
15,Cc1csc(N2CCN(C(=O)c3ccc(C)s3)CC2)n1,5.75%
16,Cc1cc(C)n(CC2CCCN2C(=O)Cc2c(C)nc(C)[nH]c2=O)n1 (stereo not drawn),-13.8%
17,CC(O)CN1CCC(CNCc2cccc(C(=O)N(C)C)c2)CC1 (stereo not drawn),1.45%
18,CC(Cn1cccn1)NCc1csc(Cc2ccccc2)n1 (stereo not drawn),0.563%
19,Cc1nc(C2CCCN2CCCc2nc3ccccc3o2)no1 (stereo not drawn),-1.3%
20,c1ccc(CN2CCCC(Cn3cncn3)C2)nc1 (stereo not drawn),20.8%
21,COc1ccccc1OCCC(=O)N1CCCCC1c1nccs1 (stereo not drawn),0.499%
22,O=C(NCCNc1ncccn1)N1CCN(c2nccs2)CC1,-2.7%
23,Cc1cc(C2CCCN2Cc2nc3ccccc3o2)on1 (stereo not drawn),1.19%
24,CCOc1ccc(S(=O)(=O)NC(=O)CC2CCCO2)cc1 (stereo not drawn),17.8%

row,Compound,cytotoxicity at 70.5 h
1,CS(=O)(=O)CCNC(=O)c1ccc(-c2ccco2)[nH]c1=O,1.54%
2,Cc1nc(-c2ccccc2)n(CC(=O)NC(C)C)n1,-1.29%
3,c1csc(-c2noc(CN3CCCCC3Cn3cccn3)n2)c1 (stereo not drawn),-1.63%
4,O=C1COc2ccc(C(=O)N3CCCC(n4ccnc4)C3)cc2N1 (stereo not drawn),2.98%
5,Cc1nc(C2CCCN(C(=O)c3cc(Cl)c[nH]3)C2)sc1C (stereo not drawn),-2.27%
6,COc1cccc(C(=O)N2CCCCC2c2nccs2)c1OC (stereo not drawn),2.23%
7,O=C(NCCNc1ncccn1)N1CCN(C2CCCC2)CC1,-8.5%
8,COc1cc(C(=O)N2CCCC(c3cc(C)[nH]n3)C2)cc(OC)c1C (stereo not drawn),29%
9,Cc1cnn(CCC(=O)N2CCCC(c3cc(C)[nH]n3)C2)c1 (stereo not drawn),49%
10,COc1c(C2CCCN2CC(=O)Nc2ccncc2)c(C)nn1C (stereo not drawn),6.03%
11,O=C(NCc1nncn1-c1ccccc1)C1CC1,-1.31%
12,Cc1ccc(OCCCC(=O)NC(C)c2nnc3n2CCC3)cc1 (stereo not drawn),-0.817%
13,Cc1cccc(OCCC(=O)NC(C)c2nnc3n2CCC3)c1 (stereo not drawn),2.23%
14,Cc1ccccc1OCCCC(=O)NC(C)c1nnc2n1CCC2 (stereo not drawn),-2.09%
15,CN(C)c1cc(CNC(=O)Nc2cccnc2N2CCCC2)ccn1,-2.03%
16,O=C(NCc1ccc2c(c1)OCO2)Nc1cccnc1N1CCCC1,-2.2%
17,O=C(NCc1ccc(-n2cncn2)nc1)c1ccc2c(c1)CCC2,0.85%
18,COc1ccc(CNC(=O)Nc2ccc(N3CCCC3)nc2)cc1O,-2.31%
19,COc1ncccc1NC(=O)NC(C)c1nncn1C (stereo not drawn),-5.01%
20,COc1ccc(CNC(=O)Nc2cccnc2N2CCCC2)cc1OC,20.8%
21,CC(NC(=O)Nc1ccc(N2CCCC2)nc1)c1nncn1C (stereo not drawn),5.27%
22,COc1ccccc1OCCN1CCCCC1Cn1cncn1 (stereo not drawn),23.7%
23,Cc1nn(C)c(C)c1C1CCCN1CC(=O)Nc1nccs1 (stereo not drawn),-0.764%
24,Cc1nn(C)c(C)c1C1CCCN1CC(=O)Nc1cccnc1 (stereo not drawn),23.1%

row,Compound,cytotoxicity at 70.5 h
1,Cc1nnc(NC(=O)CN2CCCC2c2c(C)nn(C)c2C)s1 (stereo not drawn),7.87%
2,Cc1n[nH]c(C)c1NC(=O)CN1CCCC1c1c(C)nn(C)c1C (stereo not drawn),1.54%
3,COc1ccccc1CC(=O)N1CCCC(c2cc(C)[nH]n2)C1 (stereo not drawn),3.02%
4,COc1cc(Cl)ccc1C(=O)N1CCCC(c2cc(C)[nH]n2)C1 (stereo not drawn),36.1%
5,CC(NC(=O)CCOc1ccc(F)cc1)c1nnc2n1CCCCC2 (stereo not drawn),5.98%
6,CC(C)c1nc2n(n1)CC(NCc1nc(C3CC3)no1)CC2 (stereo not drawn),-1.86%
7,c1cnnc(N2CCCC(NCc3cccc4c3OCCCO4)C2)c1 (stereo not drawn),0.746%
8,Cn1cnnc1C1CCCN(C(=O)COCc2ccccc2)C1 (stereo not drawn),-2.8%
9,COCc1nc(C(=O)N2CCCC(n3nc(C)nc3C)C2)cs1 (stereo not drawn),28.1%
10,Cc1nc(C)n(C2CCCN(C(=O)c3ccn(C(C)C)n3)C2)n1 (stereo not drawn),-6.2%
11,Cc1nc(C)n(C2CCCN(C(=O)c3cscn3)C2)n1 (stereo not drawn),-2.85%
12,Cc1cnc(C(=O)N2CCCC(n3nc(C)nc3C)C2)cn1 (stereo not drawn),-11.1%
13,COc1ncccc1CNC(=O)c1cc(C)on1,-8.23%
14,CC(C)Oc1ncccc1CNC(=O)c1ccc(=O)[nH]n1,-3.21%
15,COc1cccc(C(=O)N2CCCC(CNS(C)(=O)=O)C2)c1 (stereo not drawn),-8.76%
16,Cc1cnc(C(=O)NCc2cccnc2OC(C)C)cn1,21%
17,Cc1cc(NC(=O)NCc2ccccc2OC(F)F)n(C)n1,-5.54%
18,CC(CCc1ccccc1)NC(=O)Nc1cnn(CC(N)=O)c1 (stereo not drawn),-2.53%
19,COc1ccc(COCC(O)CNC(=O)c2cccnc2)cc1 (stereo not drawn),32.7%
20,CC(Cc1ccco1)NC(=O)Nc1cnn(CC(N)=O)c1 (stereo not drawn),-1.8%
21,Cc1cnn(CC(C)NCc2ccc(S(C)(=O)=O)cc2)c1 (stereo not drawn),-1.78%
22,c1ccc(-n2nnnc2CN2CCCC(Cn3cncn3)C2)cc1 (stereo not drawn),-0.367%
23,O=C(NC1CCN(c2snc3ccccc23)CC1)C1CCC1,14.4%
24,c1cnnc(N2CCCC2CNc2ncnc3ccccc23)c1 (stereo not drawn),11.3%

row,Compound,cytotoxicity at 70.5 h
1,c1cnnc(N2CCCC2CNc2nc3ccccc3o2)c1 (stereo not drawn),-2.85%
2,CCCc1ncc(C(=O)N2CCOC(c3nc(C)n[nH]3)C2)s1 (stereo not drawn),-7.33%
3,CCc1ncncc1C(=O)N1CCOC(c2nc(C)n[nH]2)C1 (stereo not drawn),-3%
4,CCc1nnsc1C(=O)N1CCOC(c2nc(C)n[nH]2)C1 (stereo not drawn),1.73%
5,Cc1cnn(CC2CCCCN2C(=O)Cc2csc(C)n2)c1 (stereo not drawn),-7.78%
6,Cc1nn(C)c(N(C)C)c1CNCc1ccccc1Cn1cncn1,-9.26%
7,Cc1nc(C(=O)N2CCCC2c2c(C)nn(C)c2C)ccc1C#N (stereo not drawn),-7.57%
8,COc1ccc(C(=O)N2CCC(Nc3cccnn3)CC2)c(OC)c1,-6.9%
9,CC(NC(N)=O)C(=O)N1CCCN(Cc2nccn2C(C)C)CC1 (stereo not drawn),-11.9%
10,Cc1nnc2n1CCN(CCOc1ccccc1)C2,-11.4%
11,Cc1ccc(NC2CCN(C(=O)c3cccc(F)c3F)CC2)nn1,-13.7%
12,Cc1ccc(-c2nc(CN3CCC(C(=O)N(C)C)CC3)cs2)o1,9.92%
13,CCCc1n[nH]c(C2CN(CCNS(=O)(=O)CC)CCO2)n1 (stereo not drawn),7.53%
14,O=S(=O)(CCN1CCOC(Cn2cccn2)C1)C(F)(F)F (stereo not drawn),11.7%
15,CCn1cnnc1CNC(=O)c1cc(Cl)ccc1O,22.7%
16,Cc1cccc(C(=O)NCc2ccc(N3CCCCC3)nc2)n1,-3.76%
17,Cn1cc(C(=O)NC2CCN(C(=O)NCCSC(F)(F)F)CC2)cn1,-1.82%
18,CCc1cccc(N2CCC(NC(=O)c3cc[nH]n3)CC2)c1,31.2%
19,CCN1CCCC(CNC(=O)C2(c3cccc(Cl)c3)CC2)C1 (stereo not drawn),-0.608%
20,CCN1CCC(CNC(=O)C2(c3cccc(C)c3)CC2)C1 (stereo not drawn),0.0668%
21,CCn1cc(NC(=O)C2CCN(Cc3ccccc3C#N)CC2)cn1,-1.61%
22,O=C(CCc1ccccc1F)NS(=O)(=O)c1ccc2c(c1)OCCCO2,-3.8%
23,FC(F)(F)Cn1ccnc1CN1CCOC(Cn2cccn2)C1 (stereo not drawn),-2.61%
24,Cc1cc(C)n(CC2CCCN2C(=O)c2cc[nH]n2)n1 (stereo not drawn),-1.3%

row,Compound,cytotoxicity at 70.5 h
1,Cc1cc(C)n(C2CN(CC(=O)N3CCOCC3)C2)n1,4.72%
2,Cc1cc(C)n(C2CN(CC(=O)NCC(C)(C)N3CCOCC3)C2)n1,0.262%
3,Cc1ccoc1C(=O)NC1CCN(Cc2csc3c(F)cccc23)CC1,18.8%
4,CC(C)C(=O)NC1CCN(Cc2cccc3c2OCCO3)CC1,-1.98%
5,c1ccc(OCCCNCCn2cccn2)cc1,-0.836%
6,CCc1nc(CN(Cc2cccs2)CC2CCCO2)no1 (stereo not drawn),1.39%
7,Cc1cnn(C2CCCN(C(=O)c3ccnc(N(C)C)c3)C2)c1 (stereo not drawn),28.8%
8,Cc1cnn(C2CCCN(C(=O)c3cccc(Cn4ccnc4)c3)C2)c1 (stereo not drawn),20.1%
9,CSc1ncccc1C(=O)NCc1ccc(CS(=O)(=O)NC(C)C)cc1,2.32%
10,COc1ccc(OC)c(NC(=O)NCC(O)c2ccc(F)c(F)c2)c1 (stereo not drawn),9.62%
11,O=C(NCCNc1cnccn1)C1CCN(C(=O)N2CCCC2)CC1,2.17%
12,COc1ncccc1NC(=O)NCC(O)c1ccc(F)cc1F (stereo not drawn),-1.05%
13,CS(=O)(=O)Cc1ccc(CNC(=O)c2cccnc2O)cc1,9.83%
14,Cc1cc(C)c(CNC(=O)N2CCCC2C(N)=O)c(=O)[nH]1 (stereo not drawn),-4.33%
15,CC(C)NC(=O)Cn1cc(-c2ccccc2)cn1,1.95%
16,O=C(NCCNc1cnccn1)N1CCCC1,5.69%
17,CC(C(=O)N1CCN(c2cnccn2)CC1)n1cncn1 (stereo not drawn),-4.32%
18,CC(=O)NC(C)(C)C(=O)Nc1ncc(Cc2ccc(C)c(F)c2)s1,-0.712%
19,Cc1cc(C)n(C2CCCN(C(=O)CCCNc3ncccn3)C2)n1 (stereo not drawn),27.5%
20,Cc1cnn(CC2CCCCN2CCC(=O)Nc2cc(C)on2)c1 (stereo not drawn),4.06%
21,CC(C)c1n[nH]c(C2CN(C(=O)CCn3ccccc3=O)CCO2)n1 (stereo not drawn),-2.51%
22,Cc1nn(C)c(N(C)C)c1CNCc1cccnc1-n1cncn1,-5.08%
